{
  "source": "BindingDB's records for patent US9624198",
  "about": "(Bayer Pharma Aktiengesellschaft, 2017)",
  "target": "T1, Alpha-2C adrenergic receptor (Homo sapiens, UniProt P18825)",
  "T1 sequence (P18825 whole entry)": "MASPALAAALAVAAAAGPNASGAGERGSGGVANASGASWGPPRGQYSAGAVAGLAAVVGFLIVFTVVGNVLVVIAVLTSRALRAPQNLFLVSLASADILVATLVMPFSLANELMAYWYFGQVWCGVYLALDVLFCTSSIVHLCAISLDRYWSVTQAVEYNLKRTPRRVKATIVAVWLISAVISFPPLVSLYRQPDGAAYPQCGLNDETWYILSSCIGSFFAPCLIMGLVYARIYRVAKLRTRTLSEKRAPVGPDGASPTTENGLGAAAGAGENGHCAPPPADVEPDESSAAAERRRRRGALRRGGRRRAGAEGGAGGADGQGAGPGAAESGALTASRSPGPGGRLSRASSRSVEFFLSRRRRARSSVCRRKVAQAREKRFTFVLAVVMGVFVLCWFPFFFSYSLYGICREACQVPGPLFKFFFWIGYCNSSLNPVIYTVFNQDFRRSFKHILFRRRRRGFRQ",
  "test": "In Vitro Assay",
  "experimental": "Antagonism against the adrenoreceptor α1A was tested using a recombinant human α1A receptor CHO cell line which additionally also recombinantly expresses mtAeq (mitochondrial aequorin). Antagonism against the adrenoreceptor α2A was tested using a recombinant human α2A-Gα16 receptor fusion protein CHO cell line (PerkinElmer Life Sciences) which additionally also recombinantly expresses mtAeq. Antagonism against the adrenoreceptor α2B was tested using a recombinant human α2B receptor CHO cell line (PerkinElmer Life Sciences) which additionally also recombinantly expresses mtAeq. Antagonism against the adrenoreceptor α2C was tested using a recombinant human α2C receptor CHO cell line which additionally also recombinantly expresses a chimaric G protein (Gαqi3) and mtOb (mitochondrial obelin).The cells were cultivated at 37° C. and 5% CO2 in Dulbecco's modified Eagle's Medium/NUT mix F12 with L-glutamine which additionally contains 10% (v/v) inactivated foetal calf serum, 1 mM sodium pyruvate, 0.9 mM sodium bicarbonate, 50 U/ml penicillin, 50 μg/ml streptomycin, 2.5 μg/ml amphotericin B and 1 mg/ml Geneticin. The cells were passaged with enzyme-free Hank's-based cell dissociation buffer. All cell culture reagents used were from Invitrogen (Carlsbad, USA).",
  "data": [
    {"molecule": "O=C(c1ccc(N2CC3(COC3)C2)nc1)N1CCC(N2CCc3ccccc3C2)CC1", "note": "[US9624198, 10]", "values": [
      {"measurement": "IC50", "result": 11, "unit": "nM"}
    ]}
  ]
}
